Test results taken from patent publication US20230090293A1, “ANTIBIOTICS” (ASTON UNIVERSITY, priority 2020, published 2023).

Assays:
[1] = test system: A2780cisR (cisplatin resistant ovarian cancer cell line); test: In vitro chemosensitivity (MTT) assay, A2780cisR; format: cell-based, human; settings: 24 h exposure, 72 h recovery, mean ± SD
Experimental: (§1) In vitro chemosensitivity tests were performed against HCT116 (colorectal cancer cell line), A2780 and A2780cisR (cisplatin sensitive and cisplatin resistant ovarian cancer cell lines, respectively). Cancer cell lines were routinely maintained as monolayer cultures in RPMI medium supplemented with 10% foetal calf serum, penicillin (100 I.U./ml) and streptomycin (100 μg/ml), sodium pyruvate (1 mM) and L-glutamine (2 mM). For chemosensitivity studies, cells were incubated in 96-well plates at a concentration of 7.5×10^3 cells per well and the plates were incubated for 24 hours at 37° C. and a 5% CO2 humidified atmosphere prior to drug exposure.
(§2) Complexes were dissolved in dimethylsulfoxide (DMSO) to provide stock solutions which were further diluted with media to provide a range of final concentrations. Drug-media solutions were added to cells (the final concentration of DMSO was less than 0.5% (v/v) in all cases) and incubated for 24 hours at 37° C. and 5% CO2 humidified atmosphere. […] A Thermo Scientific Multiskan EX microplate photometer was used to measure the absorbance in each well at 570 nm. Cell survival was determined as the absorbance of treated cells divided by the absorbance of controls and expressed as a percentage. The IC50 values were determined from plots of % survival against drug concentration. […]

[2] = test system: HCT116 (colorectal cancer cell line); test: In vitro chemosensitivity (MTT) assay, HCT116; format: cell-based, human; settings: 24 h exposure, 72 h recovery, mean ± SD
Experimental: as §1, §2

N.N.[Cl][Pt][Cl] [cisplatin]
IC50 [1]: 11.9 ± 2.2 µM | IC50 [2]: 59.8 ± 7.5 µM
